Measurements published in a melting point compilation (Tetko et al.; mined from patent text by program, amines drawn as free bases though some values may be those of a salt).

SMILES	melting point
COC(=O)CCC#Cc1cc(F)cc([N+](=O)[O-])c1	111 to 112 °C
Nc1c(C(=O)NC(Cc2ccc(OCc3ccccc3)cc2)C(=O)O)oc2cc(-c3ccc(Cl)cc3)ccc12 (configuration not stated)	250 °C
CN1Cc2c(C#N)ncn2-c2ccsc2C1=O	206 to 208 °C
O=C(O)CCNC(=S)Nc1ccc2cn[nH]c2c1	175 °C
CCOC(=O)NC1N=C(c2ccc(Cl)cc2)c2oc3ccccc3c2NC1=O (configuration not stated)	> 260 °C
OC[C@@H]1CN(C(c2ccccc2)(c2ccccc2)c2ccccc2)CCO1	142 °C
Cc1cccc(C)c1-n1c(C)nnc1S	189 to 192 °C
NC(CCCc1ccccc1)C(=O)O (configuration not stated)	213 to 215 °C
O=C(O)c1csc(NC(=O)C(CC2CCCC2)c2ccc(Cl)c(Cl)c2)n1 (configuration not stated)	285 to 287 °C
Cc1cc(Cl)cc(NC(=O)Cc2ccc(OC3(C(=O)O)CCC(C)C3)cc2)c1 (configuration not stated)	164 to 166 °C
CC(C)(N)CNC(CO)(CO)CO	73 to 75 °C
CC(C)Oc1ccc(CCCOc2cc(CCC(=O)O)n(-c3ccccc3)n2)c(OCc2ccc(Cl)cc2Cl)c1	139 to 141 °C
OC(c1ccccc1)(c1ccc(C(F)(F)F)cc1)c1nccn1Cc1ccccc1 (configuration not stated)	167 to 169 °C
CC(C)CC(C)Oc1c(-c2ccc(S(C)(=O)=O)cc2)cnn(-c2ccc(F)c(F)c2)c1=O (configuration not stated)	132 to 133 °C
CC(=O)OC1CC2=CC=C3C4CCC(C(C)C=CC(C)C(C)C)C4(C)CCC3C2(C)C(OC(C)=O)C1 (configuration not stated)	128 to 130 °C
Cc1cc(C)c(S(=O)(=O)NC(COc2ccccc2)C(F)(F)F)c(C)c1 (configuration not stated)	89 to 91 °C
CCOCc1nc2c(N)nc3cc(OCc4ccccc4C)ccc3c2n1CC(C)C	216 to 218 °C
COC(=O)C(C(C)C)S(=O)(=O)Nc1nc(OC)cc(OC)n1 (configuration not stated)	94 to 95 °C
O=[N+]([O-])c1ccc(O)cc1Br	130 to 135 °C
CS(=O)(=O)c1ccc(-c2oc(COc3ccccn3)nc2-c2ccc(F)cc2)cc1	276 to 278 °C
CCCSc1ncc(CC(C(=O)O)C(=O)OCC)n1Cc1ccccc1Cl (configuration not stated)	118 to 120 °C
COC(=O)CCCSc1c2c(=O)n(C)c(=O)n(CC(C)C)c2nn1Cc1cccc2ccccc12	100 °C
Clc1nccnc1Oc1ccc(Oc2ccccc2)cc1	53 to 55 °C
COc1ccc(-c2ccc(=O)n(Cc3nc4cc(F)ccc4o3)c2)cc1	115 °C
ClCCOc1ccc(/C=C/c2nc3ccccc3s2)cc1	92 to 94 °C
N#Cc1cnc2cc3c(cc2c1Nc1cccc(Br)c1)OCO3	201 to 205 °C

SMILES	melting point
O=C(NCC1CC1)c1ccc(-c2ccc3nnn(Cc4ccc5ncccc5c4)c3n2)cc1F	120 to 122 °C
O=[N+]([O-])c1c(C2C=CCCC2)ccnc1Cl (configuration not stated)	54.5 to 55.4 °C
O=C(NC/C=C\COc1cc(CN2CCCCC2)ccn1)c1ccc(Cl)s1	75 to 77 °C
COC1(c2cc(F)cc(Sc3ccc(C(=NO)c4nccs4)cc3)c2)CCOCC1	153 to 154 °C
O=C(NCCCCOc1cc(CN2CCCCC2)ccn1)c1cn[nH]c1	145 to 147 °C
O=C1c2ccccc2C(=O)N1CCCCN1CCN(c2csc3cc(F)ccc23)CC1	94 to 95 °C
Cc1c(C(=O)O)oc2c(C(C)(C)C)ccc(O)c12	219 to 222 °C
CCC(C)Nc1cc(N2CCc3cc(OC)cc(Cl)c32)nc(C)n1 (configuration not stated)	102 to 105 °C
COCNC(=O)NC1CC(C)(C)N(C)C(C)(C)C1	105 °C
N#CC(C(=O)C(=O)C(C#N)c1ccc(Cl)cc1)c1ccc(Cl)cc1 (configuration not stated)	255 °C
CC(=O)Nc1nc2ccc(S(=O)(=O)n3c(CCC(=O)O)cc4cc(C(F)(F)F)ccc43)cc2s1	290 to 292 °C
ClCCCON=C(Cl)c1c(Cl)cccc1Cl	69 to 71 °C
Cc1ccc(CNc2nc(Cl)nc(Nc3ccc4[nH]c(=O)[nH]c4c3)n2)o1	164 to 166 °C
Cc1cccc2c1nc(COc1ccc(Cl)cc1)n2CCC(C)C(=O)O (configuration not stated)	149 to 151 °C
CC1=Cc2cccc(S(N)(=O)=O)c2OS1(=O)=O	204 to 205 °C
OC1(Cc2ccccc2F)CCN(Cc2ccccc2)C1 (configuration not stated)	75 to 77 °C
O=C1C(=O)c2ccccc2C2=C1SCC1(CCN(CC(O)COc3ccc(Cl)cc3)CC1)O2 (configuration not stated)	138 to 140 °C
Fc1ccc(-n2nccc2NC2=NCCN2)cc1	195 to 197 °C
COc1cc2c(cc1OC)N(C)C(=O)CNC2=O	260 to 263 °C
CCOP(=O)(CC(Nc1cccnc1)c1cc(OC)c(O)c(OC)c1)OCC (configuration not stated)	164 to 166 °C
O=C1Nc2ccccc2C(c2ccccc2)N1C1CCN(Cc2cccc(OC(F)(F)F)c2)CC1 (single isomer, unassigned; (+))	195 to 198 °C
O=C(O)CCc1cn(Cc2ccc(OCc3ccsc3)cc2)cc1-c1ccccc1	118 to 119 °C
CCCCCCCCCCCCCCCCSCC(CNS(=O)(=O)CCCI)n1nnnc1C (configuration not stated)	63.5 to 65.5 °C
CSC1NC(=O)N(c2ccccc2)C(=O)N1N=C(C)C (configuration not stated)	206 to 207 °C
COc1ccc(-n2cnc(-c3cccc(C(=O)O)c3)n2)cc1	230 to 232 °C
O=C(NCCCn1ccnc1)c1ccccc1	134 to 136 °C

SMILES	melting point
CCCCCOc1cc2c(cc1OCc1cccc(C(=O)OC)c1)C(=O)CC2	110 to 111 °C
CCNC(=O)CC1CCN(Cc2cnc3cc(NC(=O)c4ccc(-c5ccc(F)cc5)cc4)ccc3c2)CC1	224 to 227 °C
O=C(O)c1ccc(NC(=O)c2ccc3c(c2)SCCCC3)cc1	261 to 262 °C
COc1c(F)cc2[nH]c(=O)c(=O)[nH]c2c1[N+](=O)[O-]	290 to 292 °C
NCCCCCCO[PH](=O)CC(=O)O (configuration not stated)	236 to 238 °C
O=C1CCC(N2Cc3c(OCC4Cc5ccccc5O4)cccc3C2=O)C(=O)N1 (configuration not stated)	258 to 260 °C
CC(=O)Nc1cccc(-n2ccnc2)c1	181 to 183 °C
OCc1c(C(F)(F)F)nn(-c2ccccc2)c1OC(F)F	57 to 59 °C
COc1ncccc1-c1nc(C(N)=O)c2[nH]c(=O)n(-c3ccccc3)c2n1	279 to 281 °C
CC(COc1ccc(C(N)=O)c(O)c1)NCC(O)COc1ccc(NS(C)(=O)=O)cc1 (configuration not stated)	147 to 150 °C
COc1ccccc1NC(=O)NCc1cccc2c1C(=O)N(C1CCC(=O)NC1=O)C2=O (configuration not stated)	214 to 216 °C
CCCCOc1ccc(S(=O)(=O)Nc2onc(C)c2Br)cc1	98 to 100 °C
N#CCc1cc(C(=O)c2ccc(Cl)cc2)cn1Cc1ccccc1	102 to 104 °C
O=C(c1ccc(Oc2cccc3ccccc23)cc1)C(O)O	93 to 96 °C
Cc1cnc2c(c1)CCCC2NC(=S)NC(=O)c1ccccc1 (configuration not stated)	168 °C
O=C(C=Cc1ccccc1Cl)Nc1cc(Cl)cc(Nc2noc3ccccc23)c1	133 to 135 °C
CC(=O)N1CCN(CC(=O)Nc2nc(-c3ccccc3)c(-c3ccc(=O)n(C(C)C)n3)s2)CC1	220 to 222 °C
COc1ccc(C(O)(c2ccc(C(C)C)cc2)C(C)C)c(OC)c1 (configuration not stated)	80 to 81 °C
Nc1cc(Cl)c(Cl)cc1I	79.5 to 80.5 °C
CC(C)S(=O)(=O)n1c(N)nc2ccc(C(=O)c3ccccc3)cc21	191 to 193 °C
CN(C)C(=O)n1nc(N)c2ccc(Cl)cc21	170 to 172 °C
CCCOC1(C=CCCCCC(=O)O)C=CC=CC1 (configuration not stated)	52 to 53 °C
c1ccc(P(CC[Si](c2ccccc2)(c2ccccc2)c2ccccc2)c2ccccc2)cc1	128 to 131 °C
COc1ccc(COCCC(C)=O)cc1	48 to 49 °C
Oc1nc2cccccc-2n1	245 °C
COC(=O)c1ccc2cc(S)ccc2c1	150 to 151 °C

SMILES	melting point
COC(=O)c1ccc(-c2nc3c(O)cccc3s2)cc1	215 to 219 °C
COc1cc(OC)c(C(=O)CCCCCl)cc1NS(=O)(=O)c1ccc(C(F)(F)F)cc1	150 to 153 °C
CC(C)C(C(=O)O)N(CCN1CCOCC1)S(=O)(=O)c1ccc(-c2ccc(NC(=O)c3cc4ccccc4o3)cc2)cc1 (configuration not stated)	181 to 185 °C
C=CCCOc1ccc(C(=O)Oc2ccc3ccc(=O)oc3c2)cc1	108 to 109 °C
CCN(CCNC(=O)c1cnc2cc(I)ccc2n1)CCNc1cccc(Br)n1	49 to 51 °C
COC(=O)c1ccc(C(CCN(C)C)c2ncc[nH]2)cc1 (configuration not stated)	102 to 104 °C
CC1(C)CCCC(C)(C)N1c1nc(Cl)cc(Cl)n1	89 to 90 °C
CCCc1c(O)c(C(C)=O)cc2c1CCCC2	52 to 53 °C
Cc1[nH]cnc1CSCCCN=C(NC#N)NCCc1c[nH]cn1	135 to 137 °C
Clc1nc2ccccc2nc1OCCOc1ccccc1	99.5 to 102 °C
N#CCOc1ccc(Cl)cc1-n1nncc1-c1cccc(C(F)(F)F)c1	145 to 146 °C
NC(=O)c1c(C(=O)O)cnn1-c1ccc(Cl)cc1Cl	239 to 240 °C
O=c1c(CCO)c(O)c2cccnc2n1-c1cccc([N+](=O)[O-])c1	244 to 245 °C
CN1Cc2c(C#CC(C)(C)C)ncn2-c2ccccc2C1=O	148 to 150 °C
Brc1ccc2c(c1)COCc1cc(Br)ccc1-2	129 to 131 °C
O=C(Nc1ccc2ccc(Cl)nc2n1)c1ccc(Cl)s1	275 °C
CN(C(=O)CN(C(=O)CNC(=O)Nc1cccc(Cc2nnn[nH]2)c1)c1ccccc1)c1ccccc1	206 °C
O=C(OC1CCCCO1)C(c1ccccc1)(c1ccccc1)c1ccccc1 (configuration not stated)	115 °C
O=C(O)c1ccc2c(c1)S(=O)(=O)N=C(n1ccnc1)N2	> 300 °C
CC(C)c1ccc(S(=O)(=O)Nc2ccc(N3CCC(NC(=O)OC(C)(C)C)CC3)nc2)cc1	208 to 209 °C
Cc1nc(N2CCN(C(=O)c3ccc(F)cc3)C2=O)sc1C(=O)NCc1ccccc1	130 to 132 °C
NCc1nnc(-c2ncn3c2[C@@H]2CCN2C(=O)c2sccc2-3)o1	233 to 235 °C
O=C(O)c1cnc(C(F)(F)F)nc1C(F)(F)F	59 °C
CCCc1c(OCc2nnn[nH]2)ccc(C(=O)c2ccccc2O)c1O	186 to 187 °C
